According to publication PMC7663263 (Molecules, 2020):
Where two headings read alike, the source gives them in different places.

Key:
S. mansoni = system: S. mansoni; design: method as in PMID 17579510; conditions: after multiple doses; cited from earlier work
L. major = conditions: read-out: IC50 against L. major; cited from earlier work
L. infantum TR = conditions: read-out: Ki L. infantum TR, substrate TS2; 40 nM enzyme, 50–400 µM TS2; steady state; cited from earlier work
[1] = target: human thioredoxin reductase (TrxR); design: method as in PMID 9685351; conditions: cited from earlier work
Human TrxR [2] = target: Human TrxR; design: method as in PMID 9685351; conditions: 1.7 nM enzyme, steady state kinetic studies, read-out: Ki Human TrxR, substrate E. coli TrxS2, cited from earlier work
L. amazonensis = conditions: read-out: IC50 against L. amazonensis; cited from earlier work
Human TrxR [3] = conditions: 2 nM enzyme, 3 mM DTNB; steady state kinetic studies; read-out: IC50 Human TrxR, substrate DTNB; cited from earlier work
B. pahangi TrxR = B. pahangi TrxR enzyme assay, DTNB reduction (original data); type: biochemical, Brugia pahangi; conditions: 20 nM enzyme, 3 mM DTNB; after 15 min preincubation; read-out: IC50 B. pahangi TrxR, substrate DTNB (original data)
Protocol: Enzymes were prepared in E. coli as described. Assays were performed at 25 °C in 0.1 M potassium phosphate (pH 7.4), 10 mM EDTA using 100 μM NADPH and 3 mM dithiobis(2-nitrobenzoic acid) (DTNB). […] The increase in A412 during the first 3 min was recorded upon DTNB addition. The reaction was done in triplicate.

Human GR = conditions: 1.5 nM enzyme, 1 mM GSSG; steady state kinetic studies; read-out: IC50 Human GR, substrate GSSG; cited from earlier work
S. mansoni TGR [4] = target: T1, S. mansoni TGR (Schistosoma mansoni, UniProt Q962Y6); design: method as in PMID 17579510; conditions: 20 nM enzyme, 8 mM substrate; after 15 min preincubation; read-out: IC50 S. mansoni TGR, substrate HED + GSSG; cited from earlier work
T1 construct: made in house; host or cells: E. coli
T1 sequence (Q962Y6 1-598): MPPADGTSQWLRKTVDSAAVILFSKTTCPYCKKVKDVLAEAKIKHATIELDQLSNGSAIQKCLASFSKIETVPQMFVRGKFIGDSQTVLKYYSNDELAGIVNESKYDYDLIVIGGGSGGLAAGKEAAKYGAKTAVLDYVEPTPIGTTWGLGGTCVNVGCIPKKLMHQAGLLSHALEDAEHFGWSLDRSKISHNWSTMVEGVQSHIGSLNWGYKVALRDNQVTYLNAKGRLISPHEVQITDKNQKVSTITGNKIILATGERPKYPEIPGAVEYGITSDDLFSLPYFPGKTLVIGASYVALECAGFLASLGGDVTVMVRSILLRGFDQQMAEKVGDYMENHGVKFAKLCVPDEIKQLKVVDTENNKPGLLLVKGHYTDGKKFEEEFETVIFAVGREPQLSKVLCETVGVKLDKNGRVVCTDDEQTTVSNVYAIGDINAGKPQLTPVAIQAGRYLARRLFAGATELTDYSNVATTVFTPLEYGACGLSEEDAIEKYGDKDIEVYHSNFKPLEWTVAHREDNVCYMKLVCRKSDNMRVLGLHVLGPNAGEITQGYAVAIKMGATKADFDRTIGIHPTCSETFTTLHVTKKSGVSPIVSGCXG

S. mansoni TGR [5] = target: T1, S. mansoni TGR; design: method as in PMID 17579510; conditions: 20 nM enzyme, 3 mM DTNB; after 15 min preincubation; read-out: IC50 S. mansoni TGR, substrate DTNB; cited from earlier work
S. mansoni TGR [6] = target: T1, S. mansoni TGR; design: method as in PMID 17579510; conditions: 20 nM enzyme, 100 µM GSSG; after 15 min preincubation; read-out: IC50 S. mansoni TGR, substrate GSSG; cited from earlier work
mitochondrial TrxR2 = system: mitochondrial TrxR2; design: method as in PMID 15458826; conditions: 2 nM enzyme, 3 mM DTNB; steady state; read-out: IC50 TrxR, substrate DTNB (mitochondrial TrxR2 instead of cytosolic TrxR1); cited from earlier work

| Compound | reduction of worm burdens in S. mansoni infected mice (S. mansoni) | IC50 (L. major) | Ki (L. infantum TR) | Ki [1] | Ki (Human TrxR [2]; at 50 TrxS2) | Ki (Human TrxR [2]; at 75 TrxS2) | IC50 (L. amazonensis) | IC50 (Human TrxR [3]) | IC50 (B. pahangi TrxR) | IC50 (Human GR) | IC50 (S. mansoni TGR [4]) | IC50 (S. mansoni TGR [5]) | IC50 (S. mansoni TGR [6]) | IC50 (mitochondrial TrxR2) |
| --- | --- | --- | --- | --- | --- | --- | --- | --- | --- | --- | --- | --- | --- | --- |
| CC(=O)OC[C@H]1O[C@@H]([S-])[C@H](OC(C)=O)[C@@H](OC(C)=O)[C@@H]1OC(C)=O.CCP(CC)CC.[Au+] [Auranofin] | ~ 60% | 70 nM | 155 nM | 4 nM | 2 nM | 3 nM | 270 nM | 20 nM | 0.5 nM | 40000 nM |  |  |  |  |
| O=C(O)CC([S-])C(=O)O.[Au+] (centres unmarked) [Aurothiomalate] |  |  |  |  |  |  |  |  |  |  | 50 nM | 90 nM | 50 nM | 280 nM |
